Source: patent publication US20060110790A1, “Expression system for large functional proteins” (priority 2002, published 2006)

Target: T1, co-expressed N and C halves of ABCR (Homo sapiens, UniProt P78363)
T1 construct: The cDNAs coding for the N-half (amino acids 1-1325) and C-half (amino acids 1326-2273) of ABCR; made in house; host or cells: COS-1 cells, co-transfected
T1 sequence (P78363 1-1325): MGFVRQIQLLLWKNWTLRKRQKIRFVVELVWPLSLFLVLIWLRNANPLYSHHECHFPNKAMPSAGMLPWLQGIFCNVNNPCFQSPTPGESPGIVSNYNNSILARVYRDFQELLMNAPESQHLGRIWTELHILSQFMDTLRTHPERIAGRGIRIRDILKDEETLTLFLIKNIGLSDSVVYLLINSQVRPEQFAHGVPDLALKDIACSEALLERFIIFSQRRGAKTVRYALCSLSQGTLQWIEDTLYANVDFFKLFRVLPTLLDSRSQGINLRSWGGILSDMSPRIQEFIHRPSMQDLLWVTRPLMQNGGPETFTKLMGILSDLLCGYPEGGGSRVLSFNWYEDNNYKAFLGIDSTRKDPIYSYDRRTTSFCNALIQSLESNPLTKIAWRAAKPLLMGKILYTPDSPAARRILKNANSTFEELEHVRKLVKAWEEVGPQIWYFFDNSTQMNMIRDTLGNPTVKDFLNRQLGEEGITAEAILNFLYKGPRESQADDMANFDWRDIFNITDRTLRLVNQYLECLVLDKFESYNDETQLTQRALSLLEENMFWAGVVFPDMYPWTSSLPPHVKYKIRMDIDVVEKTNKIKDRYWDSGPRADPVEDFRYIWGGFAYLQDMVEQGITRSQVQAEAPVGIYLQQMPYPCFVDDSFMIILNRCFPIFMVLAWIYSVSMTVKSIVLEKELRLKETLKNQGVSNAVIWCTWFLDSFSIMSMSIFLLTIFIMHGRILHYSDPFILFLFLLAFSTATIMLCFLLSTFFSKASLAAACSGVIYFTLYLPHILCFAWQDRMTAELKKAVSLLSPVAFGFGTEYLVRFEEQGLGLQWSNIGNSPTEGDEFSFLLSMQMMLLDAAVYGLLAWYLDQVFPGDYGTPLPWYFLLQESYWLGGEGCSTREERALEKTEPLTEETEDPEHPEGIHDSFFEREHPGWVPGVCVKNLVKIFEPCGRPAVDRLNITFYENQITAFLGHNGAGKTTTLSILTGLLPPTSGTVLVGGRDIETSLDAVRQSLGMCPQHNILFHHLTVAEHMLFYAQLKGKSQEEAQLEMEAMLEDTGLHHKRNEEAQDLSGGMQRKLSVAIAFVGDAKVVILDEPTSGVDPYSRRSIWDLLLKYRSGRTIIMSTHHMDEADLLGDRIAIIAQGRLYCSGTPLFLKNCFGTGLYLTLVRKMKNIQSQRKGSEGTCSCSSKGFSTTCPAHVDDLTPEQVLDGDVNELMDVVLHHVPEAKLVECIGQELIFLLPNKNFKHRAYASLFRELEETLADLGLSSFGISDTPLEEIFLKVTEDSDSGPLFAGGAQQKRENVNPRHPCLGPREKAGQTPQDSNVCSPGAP
T1 sequence (P78363 1326-2273): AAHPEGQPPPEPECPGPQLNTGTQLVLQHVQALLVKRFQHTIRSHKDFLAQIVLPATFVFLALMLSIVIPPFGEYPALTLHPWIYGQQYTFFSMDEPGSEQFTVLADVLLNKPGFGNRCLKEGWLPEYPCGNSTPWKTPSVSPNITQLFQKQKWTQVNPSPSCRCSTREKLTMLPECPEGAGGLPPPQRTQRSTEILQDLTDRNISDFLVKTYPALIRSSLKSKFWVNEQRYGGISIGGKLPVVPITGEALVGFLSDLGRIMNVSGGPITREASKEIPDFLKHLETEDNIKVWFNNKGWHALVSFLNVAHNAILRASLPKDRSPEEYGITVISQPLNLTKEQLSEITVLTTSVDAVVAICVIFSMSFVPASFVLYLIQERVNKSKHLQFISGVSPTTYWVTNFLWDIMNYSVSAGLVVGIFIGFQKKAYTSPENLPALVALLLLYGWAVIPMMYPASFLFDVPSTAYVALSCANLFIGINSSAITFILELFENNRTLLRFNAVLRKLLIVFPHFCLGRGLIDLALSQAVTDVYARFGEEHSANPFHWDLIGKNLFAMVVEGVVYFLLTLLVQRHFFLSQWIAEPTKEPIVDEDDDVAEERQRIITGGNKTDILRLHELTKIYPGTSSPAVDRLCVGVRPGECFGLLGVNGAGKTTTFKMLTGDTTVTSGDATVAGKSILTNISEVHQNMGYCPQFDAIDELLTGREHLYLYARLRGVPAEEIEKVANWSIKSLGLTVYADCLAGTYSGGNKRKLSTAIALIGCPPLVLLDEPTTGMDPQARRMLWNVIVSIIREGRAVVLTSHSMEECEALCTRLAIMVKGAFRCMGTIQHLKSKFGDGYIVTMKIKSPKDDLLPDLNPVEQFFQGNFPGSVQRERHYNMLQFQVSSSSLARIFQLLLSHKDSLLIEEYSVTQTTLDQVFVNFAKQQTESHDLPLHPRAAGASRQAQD
Test: Retinal-stimulated ATPase activity of purified protein reconstituted in lipid vesicles
Assay type: biochemical
Conditions: expressed in COS-1 cells, purified on Rim 3F4 column, 50 μM [α32P]ATP
Method: Membranes (from two 10 cm dishes) were solubilized in 0.5 ml of 1% Triton-X100 in Buffer A (140 mM NaCl, 20 mM Tris-HCl, pH 7.4) for 20 min on ice. For ATPase assays, the membrane preparation step was omitted and the cell suspension was solubilized directly in Buffer B (10 mg/ml soybean phospholipids, 10% glycerol, 1 mM dithiothreitol, 100 mM NaCl, 3 mM MgCl2, 50 mM NaHEPES, pH 7.4) containing 18 mM CHAPS. The supernatant after a 10 min centrifugation at 40,000 rpm (TLA100.4 rotor) was mixed with 50 μl Rim3F4 Sepharose 2B for 1 h at 4° C. The beads were washed 6 times in Buffer A containing 0.2% Triton X-100 or Buffer B containing 10 mM CHAPS and eluted with 4% SDS (for electrophoresis) or 0.2 mg/ml Rim3F4 peptide (for reconstitution and determination of ATPase activity). Purified protein (24 μl) was incubated with 6 μl of 50 mg/ml lipid (1:1 mixture of dioleoylphosphatidylethanolamine and brain polar lipid, by weight) and 3 μl n-octylglucoside for 30 min on ice. The mixture was diluted rapidly with 200 μl of Buffer C (1 mM dithiothreitol, 140 mM NaCl, 25 mM NaHEPES, pH 7.4) and passed through a 200 μl Extracti-gel column (Pierce). The flow-through containing the reconstituted protein was used for determination of ATPase activity.
ATPase activity was measured as described previously (Ahn, J., Wong, J. T., and Molday, R. S. (2000) J Biol Chem 275(27), 20399-405) using 50 μM [α^32P]ATP and thin layer chromatography. The all-trans retinal concentration was determined spectrophotometrically (λ383 nm=42.88 mM^−1 cm^−1). Protein concentration was estimated from the eluate before reconstitution by laser densitometry of Coomassie blue stained gels using bovine serum albumin as a standard. […] Direct protein measurements after reconstitution by densitometry of Western blots was about half of that in the eluate. […]
ATPase Activity of Expressed N and C Halves—The basal and retinal activated ATPase activity of full-length ABCR and the N and C halves individually or co-expressed in COS-1 cells was determined after immunoaffinity purification and reconstitution into lipid vesicles. […]

stimulation of ATPase activity: 1-2 fold
Structure (SMILES): CC1=C(/C=C/C(C)=C/C=C/C(C)=C/C=O)C(C)(C)CCC1 [all-trans retinal]
